Experimental data: publication PMC9005681, “Use of AD Informer Set compounds to explore validity of novel targets in Alzheimer's disease pathology” (Alzheimer's & Dementia : Translational Research & Clinical …, 2022)
Where “and” joins values, the source holds several entries; their conditions need not be identical. Identical values can stand only once.

Tests used:
Experiment in all cases: PDSP GPCR panel primary binding assays at 10 μM
Details in all cases: primary assay
[1] = molecular target: T1, cloned human or rodent CNS receptors, channels, and transporters (PDSP panel) (Homo sapiens, UniProt P14416)
T1 construct: expressed in transfected cells
How it was run: (§1)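 Secondary binding curves (11 points, triplicate) were run at targets where the 10 μM primary screen, done in quadruplicate, displaced over 50% of radio-labelled standard ligand on average. Primary screening covered 46–47 cloned human or rodent CNS targets; H3, PBR and GABAA were not followed up.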

[2] = molecular target: T2, cloned human or rodent CNS receptors, channels, and transporters (PDSP panel) (Homo sapiens, UniProt P18089)
T2 construct: expressed in transfected cells
T2 sequence (P18089 1-450): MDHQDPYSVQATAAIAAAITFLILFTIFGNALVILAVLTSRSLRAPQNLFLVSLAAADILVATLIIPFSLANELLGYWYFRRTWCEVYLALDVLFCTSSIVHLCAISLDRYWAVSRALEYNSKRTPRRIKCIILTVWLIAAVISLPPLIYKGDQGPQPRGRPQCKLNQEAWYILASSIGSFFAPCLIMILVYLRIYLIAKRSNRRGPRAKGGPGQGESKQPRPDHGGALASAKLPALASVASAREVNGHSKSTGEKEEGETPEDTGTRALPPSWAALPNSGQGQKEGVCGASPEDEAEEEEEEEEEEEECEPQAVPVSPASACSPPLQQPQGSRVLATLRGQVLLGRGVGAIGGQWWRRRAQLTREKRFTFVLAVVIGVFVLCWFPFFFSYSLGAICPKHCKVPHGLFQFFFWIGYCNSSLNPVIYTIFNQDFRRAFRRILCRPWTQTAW
How it was run: as §1

[3] = molecular target: T3, cloned human or rodent CNS receptors, channels, and transporters (PDSP panel) (Homo sapiens, UniProt P31645)
T3 construct: expressed in transfected cells
How it was run: as §1

[4] = molecular target: T4, cloned human or rodent CNS receptors, channels, and transporters (PDSP panel) (Homo sapiens, UniProt P47898)
T4 construct: expressed in transfected cells
How it was run: as §1

[5] = molecular target: T5, cloned human or rodent CNS receptors, channels, and transporters (PDSP panel) (Homo sapiens, UniProt Q01959)
T5 construct: expressed in transfected cells
How it was run: as §1

[6] = molecular target: T6, cloned human or rodent CNS receptors, channels, and transporters (PDSP panel) (Homo sapiens, UniProt P28335)
T6 construct: expressed in transfected cells
T6 sequence (P28335 33-458): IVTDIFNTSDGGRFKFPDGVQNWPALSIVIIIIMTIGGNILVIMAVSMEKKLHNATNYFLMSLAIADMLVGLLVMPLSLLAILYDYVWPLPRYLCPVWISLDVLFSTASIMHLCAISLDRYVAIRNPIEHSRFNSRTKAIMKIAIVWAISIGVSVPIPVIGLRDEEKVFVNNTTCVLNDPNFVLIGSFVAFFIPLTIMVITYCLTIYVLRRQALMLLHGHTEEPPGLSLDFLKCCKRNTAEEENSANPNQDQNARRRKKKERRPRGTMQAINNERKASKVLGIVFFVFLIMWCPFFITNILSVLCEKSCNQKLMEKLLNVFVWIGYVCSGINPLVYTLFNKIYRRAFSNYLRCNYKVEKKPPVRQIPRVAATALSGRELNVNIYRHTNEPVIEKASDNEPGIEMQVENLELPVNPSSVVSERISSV
How it was run: as §1

[7] = molecular target: T7, cloned human or rodent CNS receptors, channels, and transporters (PDSP panel) (Homo sapiens, UniProt P08173)
T7 construct: expressed in transfected cells
T7 sequence (P08173 1-479): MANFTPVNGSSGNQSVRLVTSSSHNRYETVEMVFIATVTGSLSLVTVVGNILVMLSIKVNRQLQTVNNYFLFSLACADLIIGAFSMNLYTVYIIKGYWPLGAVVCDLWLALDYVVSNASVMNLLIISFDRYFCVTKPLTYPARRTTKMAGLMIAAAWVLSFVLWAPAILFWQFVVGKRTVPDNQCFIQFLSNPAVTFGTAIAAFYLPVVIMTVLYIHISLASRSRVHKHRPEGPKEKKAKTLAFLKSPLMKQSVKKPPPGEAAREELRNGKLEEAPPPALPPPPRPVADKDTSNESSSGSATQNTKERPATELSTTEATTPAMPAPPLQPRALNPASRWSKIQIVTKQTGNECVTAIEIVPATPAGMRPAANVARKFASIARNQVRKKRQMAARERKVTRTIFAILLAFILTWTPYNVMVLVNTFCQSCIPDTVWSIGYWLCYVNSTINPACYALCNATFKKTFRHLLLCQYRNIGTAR
How it was run: as §1

[8] = molecular target: T8, cloned human or rodent CNS receptors, channels, and transporters (PDSP panel) (Rattus norvegicus, UniProt P16257)
T8 construct: expressed in transfected cells
How it was run: as §1

T3 sequence (P31645 whole entry): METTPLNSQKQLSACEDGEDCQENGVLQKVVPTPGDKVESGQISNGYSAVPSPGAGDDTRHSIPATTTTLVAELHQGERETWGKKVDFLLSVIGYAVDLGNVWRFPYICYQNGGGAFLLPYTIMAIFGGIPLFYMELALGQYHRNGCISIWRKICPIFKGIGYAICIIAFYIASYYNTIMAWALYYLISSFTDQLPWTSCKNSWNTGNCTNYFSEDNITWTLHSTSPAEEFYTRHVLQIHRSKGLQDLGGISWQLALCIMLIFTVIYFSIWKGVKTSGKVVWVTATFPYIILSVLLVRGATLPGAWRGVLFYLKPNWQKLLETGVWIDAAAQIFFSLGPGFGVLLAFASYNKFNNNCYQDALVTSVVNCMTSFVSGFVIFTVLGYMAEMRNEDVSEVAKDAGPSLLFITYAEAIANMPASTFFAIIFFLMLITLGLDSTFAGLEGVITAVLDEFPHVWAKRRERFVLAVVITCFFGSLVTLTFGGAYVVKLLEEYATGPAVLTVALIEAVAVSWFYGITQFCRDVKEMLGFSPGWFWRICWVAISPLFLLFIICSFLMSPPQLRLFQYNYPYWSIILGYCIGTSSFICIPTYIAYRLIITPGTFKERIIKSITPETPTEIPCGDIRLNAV
T1 sequence (P14416 whole entry): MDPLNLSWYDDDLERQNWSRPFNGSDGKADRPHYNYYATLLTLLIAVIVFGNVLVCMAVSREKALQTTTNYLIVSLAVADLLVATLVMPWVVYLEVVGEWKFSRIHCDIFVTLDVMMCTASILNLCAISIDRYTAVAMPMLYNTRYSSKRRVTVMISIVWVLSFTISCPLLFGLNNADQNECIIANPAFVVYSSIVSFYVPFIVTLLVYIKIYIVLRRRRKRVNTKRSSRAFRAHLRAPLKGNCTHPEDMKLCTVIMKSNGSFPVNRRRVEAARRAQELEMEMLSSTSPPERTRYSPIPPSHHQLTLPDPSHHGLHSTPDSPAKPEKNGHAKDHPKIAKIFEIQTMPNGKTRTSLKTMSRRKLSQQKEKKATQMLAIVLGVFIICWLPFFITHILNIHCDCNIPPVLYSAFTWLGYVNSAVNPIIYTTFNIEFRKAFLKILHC
T5 sequence (Q01959 whole entry): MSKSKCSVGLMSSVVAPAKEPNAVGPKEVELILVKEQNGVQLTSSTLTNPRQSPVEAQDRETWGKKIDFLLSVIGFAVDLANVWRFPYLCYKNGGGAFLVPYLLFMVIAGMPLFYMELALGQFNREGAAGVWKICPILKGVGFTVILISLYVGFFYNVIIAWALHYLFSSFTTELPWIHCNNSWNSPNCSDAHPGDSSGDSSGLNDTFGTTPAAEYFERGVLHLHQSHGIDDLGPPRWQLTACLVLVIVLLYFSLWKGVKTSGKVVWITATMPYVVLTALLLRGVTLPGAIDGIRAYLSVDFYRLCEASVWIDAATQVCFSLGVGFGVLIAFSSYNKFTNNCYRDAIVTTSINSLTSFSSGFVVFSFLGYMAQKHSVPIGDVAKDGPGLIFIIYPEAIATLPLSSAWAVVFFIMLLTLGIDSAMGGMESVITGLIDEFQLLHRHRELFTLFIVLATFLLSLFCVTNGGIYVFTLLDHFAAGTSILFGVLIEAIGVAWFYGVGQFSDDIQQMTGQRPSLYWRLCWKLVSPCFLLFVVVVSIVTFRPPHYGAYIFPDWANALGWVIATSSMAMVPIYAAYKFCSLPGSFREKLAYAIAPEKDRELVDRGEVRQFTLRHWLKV
T4 sequence (P47898 whole entry): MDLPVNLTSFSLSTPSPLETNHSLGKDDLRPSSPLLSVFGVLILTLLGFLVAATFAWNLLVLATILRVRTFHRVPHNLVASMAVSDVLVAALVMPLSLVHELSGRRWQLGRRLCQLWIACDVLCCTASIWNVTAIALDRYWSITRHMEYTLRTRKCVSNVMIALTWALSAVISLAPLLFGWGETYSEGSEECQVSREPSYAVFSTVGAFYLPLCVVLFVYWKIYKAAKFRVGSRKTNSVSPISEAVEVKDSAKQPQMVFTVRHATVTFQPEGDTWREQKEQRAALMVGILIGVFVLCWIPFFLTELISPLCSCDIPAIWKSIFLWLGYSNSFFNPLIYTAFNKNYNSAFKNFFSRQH

## Cl.NC(=O)c1cnc(N[C@@H]2CCCC[C@@H]2N)nc1Nc1cccc(-n2nccn2)c1 [UNC10302682A, P505-15 (PRT06207 HCl)]
[1]; Receptor D2, 10 μM
  Inhibition 1: 17.73%
  Inhibition 2: -4.34%
  Inhibition 3: 3.54%
  Inhibition 4: 5.97%
[1]; Receptor D2, 10 μM, mean of Inhibition 1-4
  Mean %: 5.73%
[2]; Receptor Alpha2B, 10 μM
  Inhibition 1: 4.86%
  Inhibition 2: 6.29%
  Inhibition 3: -7.3%
  Inhibition 4: -0.22%
[2]; Receptor Alpha2B, 10 μM, mean of Inhibition 1-4
  Mean %: 0.91%
[3]; Receptor SERT, 10 μM
  Inhibition 2: 8.4% and 8.39%
  Inhibition 3: 11.88% and 10.26%
  Inhibition 4: 20.53% and 20.37%
[3]; Receptor SERT, 10 μM, mean of Inhibition 1-4
  Mean %: 14.96% and 10.68%
[4]; Receptor 5-HT5A, 10 μM
  Inhibition 1: -3.51%
  Inhibition 2: -8.26%
  Inhibition 3: 4.4%
  Inhibition 4: 6.38%
[4]; Receptor 5-HT5A, 10 μM, mean of Inhibition 1-4
  Mean %: -0.25%
[5]; Receptor DAT, 10 μM
  Inhibition 1: 65.15%
  Inhibition 2: 70.33%
  Inhibition 3: 66.98%
  Inhibition 4: 72.6%
[5]; Receptor DAT, 10 μM, mean of Inhibition 1-4
  Mean %: 68.77%
[6]; Receptor 5-HT2C, 10 μM
  Inhibition 1: 78.04%
  Inhibition 2: 64.79%
  Inhibition 3: 67.73%
  Inhibition 4: 44.66%
[6]; Receptor 5-HT2C, 10 μM, mean of Inhibition 1-4
  Mean %: 63.81%
[7]; Receptor M4, 10 μM
  Inhibition 1: 24.23%
  Inhibition 2: 6.78%
  Inhibition 3: 21.48%
  Inhibition 4: 18.49%
[7]; Receptor M4, 10 μM, mean of Inhibition 1-4
  Mean %: 17.75%
[8]; Receptor PBR, 10 μM
  Inhibition 1: 32.16% and 27.63%
  Inhibition 2: 2.97% and 6.1%
  Inhibition 4: 18.35% and 12.24%
[8]; Receptor PBR, 10 μM, mean of Inhibition 1-4
  Mean %: 14.68% and 16.23%

## CCC(=O)N1CCC(NC(=O)Nc2ccc(OC(F)(F)F)cc2)CC1 [UNC10302681A, TPPU]
[1]; D2, mean inhibition
  Mean %: -2.08%
[1]; D2, replicate 1
  Inhibition 1: 8.4%
[1]; D2, replicate 2
  Inhibition 2: -12.22%
[1]; D2, replicate 3
  Inhibition 3: -3.46%
[1]; D2, replicate 4
  Inhibition 4: -1.03%
[2]; Alpha2B, mean inhibition
  Mean %: 6.32%
[2]; Alpha2B, replicate 1
  Inhibition 1: 1.27%
[2]; Alpha2B, replicate 2
  Inhibition 2: 8.98%
[2]; Alpha2B, replicate 3
  Inhibition 3: 5.54%
[2]; Alpha2B, replicate 4
  Inhibition 4: 9.47%
[3]; SERT, replicate 1
  Inhibition 1: 16.43% and 21.37%
[3]; SERT, replicate 2
  Inhibition 2: -9.69% and 21.48%
[3]; SERT, replicate 3
  Inhibition 3: 7.05% and 21.19%
[3]; SERT, replicate 4
  Inhibition 4: 4.97% and 21.78%
[4]; 5-HT5A, mean inhibition
  Mean %: -10.71% and -8.22%
[4]; 5-HT5A, replicate 1
  Inhibition 1: 25.37% and 9.24%
[4]; 5-HT5A, replicate 2
  Inhibition 2: -13.71% and -7.98%
[4]; 5-HT5A, replicate 3
  Inhibition 3: -53.57% and -12.99%
[4]; 5-HT5A, replicate 4
  Inhibition 4: -0.94% and -21.14%
[5]; DAT, mean inhibition
  Mean %: 59.91%
[5]; DAT, replicate 1
  Inhibition 1: 71.52%
[5]; DAT, replicate 2
  Inhibition 2: 71.2%
[5]; DAT, replicate 3
  Inhibition 3: 51.64%
[5]; DAT, replicate 4
  Inhibition 4: 45.27%
[6]; 5-HT2C, mean inhibition
  Mean %: -8.1%
[6]; 5-HT2C, replicate 1
  Inhibition 1: 3.44%
[6]; 5-HT2C, replicate 2
  Inhibition 2: -10.8%
[6]; 5-HT2C, replicate 3
  Inhibition 3: -1.96%
[6]; 5-HT2C, replicate 4
  Inhibition 4: -23.07%
[7]; M4, mean inhibition
  Mean %: 27.22%
[7]; M4, replicate 1
  Inhibition 1: 20.33%
[7]; M4, replicate 2
  Inhibition 2: 6.55%
[7]; M4, replicate 3
  Inhibition 3: 30.66%
[7]; M4, replicate 4
  Inhibition 4: 51.34%
[8]; PBR, mean inhibition
  Mean %: 4.31% and 5.42%
[8]; PBR, replicate 1
  Inhibition 1: 20.73% and 18.86%
[8]; PBR, replicate 2
  Inhibition 2: -4.07% and -6.82%
[8]; PBR, replicate 3
  Inhibition 3: -2.57% and 2.75%
[8]; PBR, replicate 4
  Inhibition 4: 3.14% and 6.9%
